The values below are quoted from earlier work in US10874605B2, “Extended release biodegradable ocular implants” (Allergan, Inc., priority 2004, dated 2020).

The conditions of this series: efficacy in vivo.

For the compound `C[C@]12CCC(=O)C=C1CC[C@@H]1[C@@H]2[C@@H](O)C[C@@]2(C)[C@H]1CC[C@]2(O)C(=O)CO` [hydrocortisone], the “dose equivalent to a 1 mg dose of dexamethasone” value is given as 25 mg and the “potency relative to dexamethasone” value is “approximately twenty five fold less potent than dexamethasone”.
